# In patent US6555528B2 (Board of Supervisors of Louisiana State University and …, priority 1999, dated 2003):
# Where two headings read alike, the source gives them in different places.
# Assays:
# [1] = target: T1, biotin carboxylase from Escherichia coli (Escherichia coli, UniProt P24182); assay: Biotin carboxylase inhibition assay (spectrophotometric, ADP production coupled to pyruvate kinase/lactate dehydrogenase); assay type: biochemical
# T1 construct: histidine-tag (N); made in house; host or cells: E. coli BL21(DE3)pLysS
# Description: It catalyzes the first partial reaction shown above as reaction (1). […] See S. Li et al., J. Biol. Chem., vol. 267, 855-863 (1992); and H. Kondo et al., Proc. Natl. Acad. Sci. USA, vol. 88, pp. 9730-9733 (1991).
# Purification was performed with a histidine-tag attached to the amino terminus of a mutant form of the enzyme and nickel affinity chromatography as described in C. […] 38, pp. 3393-3400 (1999).
# The amount of ADP was determined using pyruvate kinase and lactate dehydrogenase, and the oxidation of NADH was followed at 340 nm. Each measurement was carried out in a volume of 0.5 ml in 1 cm path length quartz cuvettes. The reaction mixture contained 10 units of pyruvate kinase, 18 units of lactate dehydrogenase, 0.5 mM phosphoenolpyruvate, 0.2 mM NADH, 8 mM MgCl2 and 100 mM HEPES at pH 8.0. For inhibition studies compound 1 was dissolved in water, and the pH adjusted to 8 with HCl. The concentration of compound 1 was assayed by phosphorus analysis using the method of B. Ames et al., J. Biol. Chem., vol. 235, pp. 769-775 (1960).
# [2] = Water solubility (observation at synthesis); assay type: physicochemical
smiles,measurement,setting,value
"O=C(O)CCCCC1SCC2C1NC(=O)N2C(=O)CP(=O)(O)O (stereo not drawn) [Compound 1, 5-(6,8-Diaza-7-oxo-6-(2-phosphonoacetyl)-3-thiabicyclo[3.3.0] Oct-2-yl) pentanoic acid]",Ki,"[1]; competitive inhibition versus ATP, read-out: slope inhibition constant",8 mM
same,Ki,"[1]; preliminary characterization, 9 mM bicarbonate, 0.1 mM ATP, 100 mM biotin, pH 8.0, read-out: inhibition constant",~8 mM
same,water solubility,[2],water soluble
O=C(O)CP(=O)(O)O [Phosphonoacetate],type of inhibition versus ATP,[1]; versus ATP,competitve inhibition
same,type of inhibition versus bicarbonate,[1]; versus bicarbonate,noncompetitve inhibition
O=C(O)CCCC[C@@H]1SC[C@@H]2NC(=O)N[C@@H]21 [biotin],substrate inhibition of biotin carboxylase,[1]; biotin as substrate,noncompetitive substrate inhibitor
